The structures appear in SMILES notation. Positions count from the first letter of the chain named. Where a SMILES comes first, the peptide text is derived from it. Bridges are numbered along the chain shown (N, C = ends).

Holding throughout (assay): Heterologous whole cell competition binding
Common to all, as to conditions: heterologous competition of 125I-sCT(8-32), whole cells, mean ± S.E.M., SEM

In experiment [1] the target is T1, hCTR V357A (Homo sapiens, UniProt P30988, V357A).
T1 construct: c-Myc (N); expressed in transfected cells
T1 sequence (P30988 25-474 V357A): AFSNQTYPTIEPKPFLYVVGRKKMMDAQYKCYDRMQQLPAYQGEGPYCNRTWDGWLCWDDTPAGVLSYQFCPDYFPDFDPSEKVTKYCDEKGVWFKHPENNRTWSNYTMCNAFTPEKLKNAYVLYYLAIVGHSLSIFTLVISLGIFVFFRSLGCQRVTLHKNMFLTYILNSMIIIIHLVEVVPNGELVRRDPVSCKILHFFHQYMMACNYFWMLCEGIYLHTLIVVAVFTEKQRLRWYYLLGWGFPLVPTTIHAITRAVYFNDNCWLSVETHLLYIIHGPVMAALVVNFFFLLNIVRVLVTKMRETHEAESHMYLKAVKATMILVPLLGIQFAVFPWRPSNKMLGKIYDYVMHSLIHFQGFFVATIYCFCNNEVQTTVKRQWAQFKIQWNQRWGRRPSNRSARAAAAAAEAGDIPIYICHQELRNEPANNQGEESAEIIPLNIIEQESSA
How it is done: (§1) Following overnight incubation non-bound ligand was removed and radioactivity was determined using a gamma counter.
(§2) Data were corrected for radioligand occupancy using the Cheng-Prusoff equation in Prism; as such data are reported as pKi. Emax and EC50 were estimated from concentration-response curves using with a 3-parameter logistic equation in Prism (v7). These values are a composite of functional affinity, efficacy and stimulus response coupling. […] Significance was accepted at P < 0.05.

In experiment [2] the target is T2, hCTR V293A (Homo sapiens, UniProt P30988, V293A).
T2 construct: c-Myc (N); expressed in transfected cells
T2 sequence (P30988 25-474 V293A): T1 sequence (P30988 25-474 V357A) with V269A, A333V
How it is done: as §1, §2

The target of experiment [3] is T3, hCTR L368A (Homo sapiens, UniProt P30988, L368A).
T3 construct: c-Myc (N); expressed in transfected cells
T3 sequence (P30988 25-474 L368A): T1 sequence (P30988 25-474 V357A) with A333V, L344A
How it is done: as §1, §2

The target in experiment [4] is T4, hCTR F359A (Homo sapiens, UniProt P30988, F359A).
T4 construct: expressed in transfected cells
T4 sequence (P30988 25-474 F359A): T1 sequence (P30988 25-474 V357A) with A333V, F335A
Here is the method:
as §1, §2

In experiment [5] the target is T5, hCTR S364A (Homo sapiens, UniProt P30988, S364A).
T5 construct: c-Myc (N); expressed in transfected cells
T5 sequence (P30988 25-474 S364A): T1 sequence (P30988 25-474 V357A) with A333V, S340A
How it is done:
as §1, §2

As a reminder, the Ki is a measure of affinity in units of concentration, obtained from inhibition or displacement. The low end stands for a stronger hold on the target, the high end for a looser hold on the target. On to `CSCC[C@H](NC(=O)CNC(=O)[C@H](CO)NC(=O)[C@H](Cc1ccccc1)NC(=O)[C@H](CCCNC(=N)N)NC(=O)[C@H](Cc1c[nH]cn1)NC(=O)[C@H](Cc1ccccc1)NC(=O)[C@H](CC(N)=O)NC(=O)[C@H](CC(N)=O)NC(=O)[C@H](CC(C)C)NC(=O)[C@H](CC(N)=O)NC(=O)[C@H](CCCNC(=N)N)NC(=O)[C@H](Cc1c[nH]c2ccccc12)NC(=O)[C@H](Cc1ccc(O)cc1)NC(=O)[C@H](C)NC(=O)[C@H](CO)NC(=O)[C@H](CC(C)C)NC(=O)[C@@H](NC(=O)[C@@H]1CSSC[C@H](N)C(=O)N[C@@H](CO)C(=O)N[C@@H](CC(N)=O)C(=O)N[C@@H](CC(C)C)C(=O)N[C@@H](CO)C(=O)N[C@@H]([C@@H](C)O)C(=O)N1)C(C)C)C(=O)NCC(=O)N[C@@H](Cc1ccccc1)C(=O)NCC(=O)N1CCC[C@H]1C(=O)N[C@@H](CCC(=O)O)C(=O)N[C@H](C(=O)N1CCC[C@H]1C(N)=O)[C@@H](C)O` [pCT] (H-CSNLSTCVLSAYWRNLNNFHRFSGMGFGPETP-NH2; disulfide 1-7), for which the inhibitory constant (Ki) in experiment [1] was 12.9 nM; in experiment [2] it was 14.1 nM; in experiment [3], 8.51 nM; in experiment [4] it was 74.1 nM; in experiment [5] it was 5.37 nM.

These data come from paper PMC5908784, “Extracellular loops 2 and 3 of the calcitonin receptor selectively modify agonist binding and efficacy” (Biochemical Pharmacology, 2018).
